Test results published in US20060205753A1, “Use of methylnaltrexone and related compounds to treat post-operative gastrointestinal dysfunction” (priority 2005, published 2006).
Entries after “also recorded” stand apart in the source; their conditions may differ. Where two headings read alike, the source gives them in different places.

Assays:
[1] = system: human patients, abdominal surgery; details: 6 mg and 12 mg oral doses, started at least two hours prior to abdominal surgery; cited from earlier work
mu opioid receptor = mu opioid receptor (Homo sapiens, UniProt P35372); details: Alvimopan compared with methylnaltrexone; as characterized by Adolor Corporation; cited from earlier work
[2] = white crystalline powder as provided; cited from earlier work
rat = details: cited from earlier work
[3] = system: human segmental colectomy patients; experiment: Phase 2 randomized, double-blind, placebo-controlled study of IV MNTX after segmental colectomy; format: in vivo
From the text: The following non-limiting examples relate to a phase 2 human study using MNTX to reduce the duration of gastrointestinal dysfunction following segmental colectomy. The primary objective of this study was to assess the activity of parenterally administered MNTX every six hours compared with placebo in shortening the duration of or preventing post-operative ileus in patients who have undergone segmental colectomies. Evidence of activity of MNTX was based on at least one or more of the following: the time to tolerance of liquids, time to first bowel movement, time to tolerance of solid foods, time to the combination of first solid meal and bowel movement, time to first micturition post foley catheter removal, and time to hospital discharge. The use of daily anti-emetic and opioid medication was also assessed.
A total of 65 patients at eight surgical centers participated in the phase 2 randomized, double-blind, placebo-controlled study. Subjects underwent segmental colectomies primarily due to cancer or diverticular disease. Shortly after surgery (90 minutes post surgery), study medication (0.3 mg/kg MNTX or placebo) was administered intravenously at six-hour intervals for a maximum of seven days.
The study was a double-blind, randomized parallel group study designed to evaluate the safety and activity of IV (intravenous) MNTX in the treatment of patients who are undergoing segmental colectomies via laparotomy and the duration of their post-operative ileus. Patients were randomized to either placebo (saline) or a fixed dose of IV MNTX of 0.30 mg/kg patient body weight in 50 cc of 0.9% normal saline hung as an IV piggyback (IVPB) to the main line and infused over twenty (20) minutes every six (6) hours until twenty-four (24) hours after the patient could tolerate solid foods, until discharged from the hospital, or for a maximum of seven (7) days. These time points for study drug discontinuation were selected in order to analyze the secondary efficacy endpoints of IV MNTX as well as the primary endpoints.
Day of Surgery. Within twenty-four (24) hours of surgery, patients were randomly assigned to either the MNTX 0.30 mg/kg or placebo (saline) dose group.
Prior to the first study drug administration the patient's vital signs were monitored. Patients were asked to assess their level of nausea, abdominal cramping, pain, and itching based on a verbal numerical scale. Within 90 minutes from the end of the surgical procedure, defined as the surgical end time recorded on the operating room (OR) sheet (regardless of whether a patient was in the PACU or not) the first dose of study drug was administered intravenously through an already existing IV line, hung as an IV piggyback (IVPB) to the main line, over 20 minutes. If the IV line was being used for other medications, i.e. antibiotics, electrolyte supplements, etc., the line was flushed with 20 cc of the main IV fluid prior to the hanging of study product. The patient's vital signs were monitored at the end of the study medication infusion, 20 min, 60 min, 120 min and 180 minutes after this first IV study drug administration. Patients were asked to assess their level of nausea, abdominal cramping, pain, and itching based on a verbal numerical scale and whether or not they had vomited 60 minutes after the end of the first study drug administration.
Inability to tolerate clear liquids was defined as nausea and/or vomiting within the first 60 minutes of the challenge.
The patient's diet was advanced to full liquids (≧500 cc of liquid) at the meal following the patient's tolerance of their first 30 cc of water by mouth. The patient's diet was then advanced to solid foods at the meal following their tolerance of full liquids. Tolerance of full liquids was defined as no clinically significant nausea and no vomiting within the first hour of the conclusion of the full liquids. […]

[4] = segmental colectomy patients, MNTX 0.30 mg/kg IV every 6 hours, on average
[5] = segmental colectomy patients, on average
[6] = sigmoidectomy patients, MNTX IV after surgery, on average

Chain of mu opioid receptor (P35372 whole entry, species assumed): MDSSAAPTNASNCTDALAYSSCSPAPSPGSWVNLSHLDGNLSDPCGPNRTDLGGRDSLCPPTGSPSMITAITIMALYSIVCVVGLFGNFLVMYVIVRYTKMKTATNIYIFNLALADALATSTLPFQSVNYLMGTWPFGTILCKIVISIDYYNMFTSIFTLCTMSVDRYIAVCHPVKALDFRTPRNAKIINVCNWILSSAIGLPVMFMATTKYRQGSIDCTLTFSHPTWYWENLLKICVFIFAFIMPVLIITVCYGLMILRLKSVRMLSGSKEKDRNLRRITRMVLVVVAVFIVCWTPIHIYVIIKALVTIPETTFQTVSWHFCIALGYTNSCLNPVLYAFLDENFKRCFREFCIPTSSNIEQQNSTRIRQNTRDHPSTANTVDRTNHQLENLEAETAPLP

| SMILES | Outcome of phase III human studies on post-operative gastrointestinal dysfunction end-points [1] | Affinity for mu opioid receptor, relative (mu opioid receptor) | Solubility in water [2] | Recovery of gastrointestinal transit (rat; MNTX intravenously 90 minutes before surgery) | Recovery of gastrointestinal transit (rat; MNTX intravenously closer to surgery (60 minutes or 45 minutes before surgery)) | Time to first bowel movement ([3]; segmental colectomy patients, MNTX 0.30 mg/kg IV every 6 hours started after surgery, on average) | Time to actual discharge [3, 4] | Time to discharge eligibility [3, 4] | Time to first flatus [3, 4] | Time to first full liquid diet [3, 4] | Time to first solid meal [3, 4] | Time to first solid meal and bowel movement (solids in-solids out) [3, 4] | Time to first use of an anti-emetic [3, 4] | Time to first anti-emetic use, delayed relative to absence of drug [3, 5] | Time to first flatus, accelerated relative to absence of drug [3, 5] | Time to first solid meal ([3]; sigmoidectomy patients, MNTX IV after surgery) | Time to actual discharge [3, 6] [h] | Time to discharge eligibility [3, 6] | Time to first bowel movement [3, 6] | Time to first flatus [3, 6] |
| --- | --- | --- | --- | --- | --- | --- | --- | --- | --- | --- | --- | --- | --- | --- | --- | --- | --- | --- | --- | --- |
| C[C@H]1CN(C[C@H](Cc2ccccc2)C(=O)NCC(=O)O)CC[C@@]1(C)c1cccc(O)c1 [Alvimopan] | inconsistent results that lacked statistical significance for many of the end-points; also recorded: inconsistent and lack statistical significance with respect to many of the end-points | greater affinity and selectivity than methylnaltrexone |  |  |  |  |  |  |  |  |  |  |  |  |  |  |  |  |  |  |
| C[N+]1(CC2CC2)CC[C@]23c4c5ccc(O)c4O[C@H]2C(=O)CC[C@@]3(O)[C@H]1C5 (stereo partly drawn) [MNTX, N-cyclopropylmethylnoroxy-morphine-methobromide] |  | lower mu opioid receptor affinity than Alvimopan | freely soluble in water | signs of partial recovery of gastrointestinal transit | not | about 97 hours | about 140 hours | about 119 hours | about 88 hours | about 70 hours | about 100 hours | about 124 hours | about 26 hours | about 10 hours | about 8 hours | about 93 hours | ≤ 125 | about 105 hours | about 94 hours | about 85 hours |
